Laboratory results from patent US20260021088A1, “METHODS OF USING ANTI-CD79b IMMUNOCONJUGATES TO TREAT FOLLICULAR LYMPHOMA” (Genentech, Inc., priority 2019, published 2026).
Values belong to the compound of their own block, whether it stands above or below them.

Experiments:
[1] = test system: patients with relapsed or refractory (R/R) FL; assay: Phase Ib/II study, dose-escalation phase: dose-limiting toxicities and recommended Phase II dose
Text: The purpose of the FL dose-escalation phase was to identify the RP2D for polatuzumab vedotin and the RP2D for lenalidomide when combined with a fixed dose of obinutuzumab as induction treatment.
Patients were closely monitored for adverse events during the dose limiting toxicity (DLT) assessment window, defined as the first treatment cycle (from Day 1 of Cycle 1 to Day 1 of Cycle 2). Patients experiencing a DLT during the DLT assessment period continued receiving study treatment once the event resolved if determined it was safe to continue treatment and there was potential for clinical benefit. Patients who discontinued from the study prior to completing the DLT assessment window for reasons other than a DLT were considered non-evaluable for dose-escalation decisions and RP2D assessments and were replaced by an additional patient at that same dose level. Patients who missed one or more doses of polatuzumab vedotin or obinutuzumab or five consecutive daily doses of lenalidomide during the DLT assessment window for reasons other than a DLT were also replaced and considered non-evaluable for dose-escalation decisions. Patients who received supportive care during the DLT assessment window that could confound the evaluation of DLTs were replaced at the discretion of the Medical Monitor.
A standard 3+3 dose-escalation schema was used. […]

[2] = test system: patients with relapsed or refractory (R/R) FL; details: for Dose reductions: n = 56
Text: This Phase Ib/II, open label, multicenter, non-randomized, dose-escalation study evaluated the safety, efficacy, and pharmacokinetics of induction treatment consisting of obinutuzumab (GA101 or G) in combination with polatuzumab vedotin (anti-CD79b(huMA79b.v28)-MC-vc-PAB-MMAE ADC (DCDS4501A) or Pola) and lenalidomide (Len) (G+Pola+Len) in patients with relapsed or refractory (R/R) FL, followed by post induction treatment with obinutuzumab in combination with lenalidomide. The study included an initial dose-escalation phase, followed by an expansion phase during which polatuzumab vedotin and lenalidomide were given at their recommended Phase II doses (RP2Ds).
The primary efficacy endpoint was based on IRC assessment of response. Patients were monitored closely for adverse events throughout the study and for at least 90 days after the last dose of study treatment. To characterize the pharmacokinetic (PK) properties of obinutuzumab, polatuzumab vedotin, and lenalidomide, blood samples were obtained at various timepoints before and during study treatment administration
Safety assessments consist of monitoring and recording adverse events, including serious adverse events and non-serious adverse events of special interest, performing protocol-specified safety laboratory assessments, measuring protocol-specified vital signs, and conducting other protocol-specified tests that were deemed critical to the safety evaluation of the study.
The safety analyses include all treated patients (i.e., patients who received any amount of study treatment). Safety is assessed through summaries of adverse events and changes from baseline in laboratory test results, shift-tables of ECGs findings, and vital signs. All adverse events occurring on or after first study treatment are summarized by mapped term, appropriate thesaurus levels, and NCI CTCAE, Version 4.0 grade. All serious adverse events, adverse events of special interest, and selected adverse events are summarized and listed. Deaths reported during the treatment period and during post-treatment follow-up are listed and summarized.
Adverse Events: NCI CTCAE, Version 4.0 is used for assessing adverse event severity. All adverse events are reported until 90 days after the last dose of study treatment. After this period, the investigator reports any serious adverse events that are believed to be related to prior study treatment and events of second malignancies for patients who received obinutuzumab. Grade 3 and 4 infections (both related and unrelated) are reported until up to 2 years after the last dose of obinutuzumab.
Infusion-Related Reactions: Adverse events that occur during or within 24 hours after the end of study treatment infusion and are judged to be related to infusion of any of the study treatment components are captured as a diagnosis (e.g., “infusion-related reaction”). If a patient experiences both a local and systemic reaction to the same dose of study treatment, each reaction is recorded separately, with signs and symptoms also recorded separately.

[3] = Example 1 interim, n = 52, given as G+Pola+Len

- Patients who required lenalidomide dose reductions ([2]; Example 2, during maintenance): Two
Compound: Nc1cccc2c1CN(C1CCC(=O)NC1=O)C2=O (stereo not shown) [lenalidomide, 3-(4-amino-1-oxo-2,3-dihydro-1H-isoindol-2-yl)piperidine-2,6-dione]
- Recommended Phase II dose (RP2D) ([1]; combined with polatuzumab vedotin and fixed dose of 1000 mg obinutuzumab): 20 mg
- AEs leading to lenalidomide dose interruptions [2, 3]: 52%
- AEs leading to lenalidomide dose reduction [2, 3]: 31%

Compound: obinutuzumab: anti-CD20 antibody; afucosylated glyco-engineered humanized B-Ly1 antibody
- Dose reductions ([2]; Example 2, given as G+Pola+Len): no dose reductions

Compound: polatuzumab vedotin
- Recommended Phase II dose (RP2D) ([1]; combined with lenalidomide and fixed dose of 1000 mg obinutuzumab): 1.4 mg/kg
- Dose reductions ([2]; Example 2, given as G+Pola+Len): no dose reductions
